≈ marks a conversion by molar mass, not a printed value. Read-outs that look alike come from different tables or passages of the source.
What was measured:
[1] = target: mTOR (Homo sapiens, UniProt P42345); experiment: Lance Ultra Assay, mTOR; type: biochemical
[2] = tested on: 60 kinds of human cancer cell lines; experiment: Cytotoxicity test on 60 kinds of human cancer cell lines from the US National Cancer Institute; type: cell-based
From the text: (§1) Cytotoxicity Test of Compound 9, 10 and 17 on 60 Kinds of Human Cancer Cell Lines from the US National Cancer Institute

[3] = tested on: PC3; experiment: NCI cytotoxicity test, PC3; type: cell-based; settings: Homo sapiens, PC-3
From the text: as §1

[4] = tested on: OVCAR3; experiment: NCI cytotoxicity test, OVCAR3; type: cell-based; settings: Homo sapiens, OVCAR-3
From the text: as §1

[5] = tested on: A549 (human lung cancer cells); experiment: MTT assay, A549; type: cell-based; settings: 72 h
Method in brief: (§2)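 Cells seeded at 4~5×10^4 cells/ml in DMEM with 5-10% FBS, treated after 24 h for 72 h at 37° C, 5% CO2, in duplicate wells. MTT (5 mg/ml) added for 4 h, formazan dissolved and OD read at 570 nm.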

[6] = In vivo pharmacokinetics in SD rats; settings: for AUC(0-t): read-out: AUC(0-24); for half-life / bioavailability: rat, plasma; for bioavailability: oral, rats, intragastric 20 mg/kg vs iv 2 mg/kg
Experimental: SD rats, male, 4-6 weeks old, weighing 200-220 g, the total number is 12, were purchased from Shanghai Slac laboratory animal limited liability company, animal production license number: SCXK (Shanghai) 2008-0016, the experimental animals using license number: SCXK (Shanghai) 2007-0005, certificate number: 2007000514232.
SD rats were randomly divided into two groups, numbered A and B, while 6 rats in each group, before the experiment starts, the rats were fasted 12 hours overnight, group A were tail vein injected with compound 9 by dose 2 mg/kg; group B were intragastric administrated with Compound 9 suspensions, of which the dose was calculated as 20 mg/kg;
Group A: tail intravenous injection (i.v.) administrated compound 9. Orbital blood 0.3 mL was taken on 0, 5, 10, 15, 30, 45, 60 min, 2 h, 3 h, 4 h, 6 h, 8 h, 12 h, and was placed in 1.5 mL EP tube coated with heparin, shaked up and down for 3 times, centrifuged at 3500 rpm for 5 min to get supernatant, and was kept in refrigerator at −20° C. to save backup;
Dose was 2 mg/kg (2.6 mL/kg), administered in a concentration of 770 μg/mL, which was dissolved with mixed aqueous solution of 9.4% ethanol and 24.5% isopropanol;
Group B: intragastric administration (i.g.), dose of 20 mg/kg, administered in a concentration of 1.5 mg/mL, and 3.75% Tween 80 was used to dissolve compound 9, gavage dose was (13.3 mL/kg);
Orbital blood 0.5 mL was taken at 0, 5, 10, 15, 30, 45, 60 min, 2 h, 3 h, 4 h, 6 h, 8 h, 12 h, 24 h, and was placed in 1.5 mL EP tube coated with heparin, shaked up and down for 3 times, centrifuged at 3500 rpm for 5 min to get supernatant, and kept in refrigerator at −20° C. to save backup.
Plasma sample 100 μL was precisely measured, put in 1.5 mL plastic centrifuge tube, 10 μL methanol and 190 μL methanol solution of compound 17 (internal standard) of 100.8 ng·mL^−1 were added, vortex mixed for 30 s, centrifuged at 12000r·min^−1 for 10 min, 200 μL supernatant was taken and put into the vial, 5 μL injected for HPLC-MS analysis.
Analytical conditions: column: SHISEIDO MG-C18 (100 mm×3.0 mm, 3.0 μm), mobile phase: acetonitrile: water (containing 0.1% formic acid=25:75 (V/V); flow rate: 0.8 mL·min^−1 analysis time 6 min, column temperature: 25° C., the injection volume: 5 μL, split ratio 2:1. The mass was in ESI source positive ion mode, the capillary voltage was 4000V, drying flow rate was 10 L/min, the atomizing air pressure was 40 psi, temperature of the drying gas was 350° C. Selective ion mode (SIM), the ion of compound 9 was [M+H] ions+m/z 561.2 and that of the internal standard compound 17 [M+H]+m/z 591.2, and the debris voltage was 70 eV.
The data gained were substituted into the accompanying standard curve, thus obtaining the drug concentration in rat plasma.
The pharmacokinetic parameters were analyzed by using non-compartmental model, the peak concentration Cmax and peak time Tmax were taken Found value, and the pharmacokinetic parameters were processed to obtain the pharmacokinetic parameters result of single dose.

[7] = tested on: U87MG (human brain star glioblastoma); experiment: MTT assay, U87MG; type: cell-based; settings: U-87 MG, 72 h
Method in brief: as §2

[8] = male, SD, iv, rat plasma, tail vein injection, 2 mg/kg
[9] = male, SD, po, rat plasma, intragastric administration, 20 mg/kg
[10] = rat plasma, intragastric administration, 20 mg/kg
[11] = rat plasma, tail vein injection, 2 mg/kg

IC50 [1]: 3.8 nM | IC50 [5]: 0.00247 µg/mL (≈ 0.00441 µM) | AUC [6, 8]: 3740 ng·h/mL | Cmax [6, 8]: 999 ng/mL | MRT [6, 8]: 8.54 h | Vd [6, 8]: 5.05 L/kg | clearance [6, 8]: 8.92 mL/min/kg | AUC(0-t) [6, 8]: 3450 ng·h/mL | AUC [6, 9]: 35600 ng·h/mL | Cmax [6, 9]: 7120 ng/mL | MRT [6, 9]: 6.46 h | Tmax [6, 9]: 0.5 h | AUC(0-t) [6, 9]: 34100 ng·h/mL | half-life ([6]; male, SD, iv, 2 mg/kg, rat plasma, tail vein injection): 6.55 h | bioavailability ([6]; male, SD, 20 mg/kg, read-out: Absolute bioavailability F0-t): 98.8% | bioavailability ([6]; male, SD, 20 mg/kg, read-out: Absolute bioavailability F0-∞): 95.2% | half-life ([6]; male, SD, po, 20 mg/kg, rat plasma, intragastric administration): 4.4 h | AUMC [6, 10]: 230.2 μg/mL · h | AUMC(0-24) [6, 10]: 183.0 μg/mL · h | k [6, 10]: 0.1573 h⁻¹ | t1/2 [6, 10]: 4.406 h | AUMC [6, 11]: 31.95 μg/mL · h | AUMC(0-24) [6, 11]: 22.23 μg/mL · h | k [6, 11]: 0.1063 h⁻¹ | IC50 [7]: 0.051 µg/mL (≈ 0.091 µM)
SMILES: COc1ncc(-c2ccc3nccc(-c4ccc(CN(C)C)cc4)c3c2)cc1NS(=O)(=O)c1ccc(F)cc1F [Compound 9, N-(5-(4-(4-((dimethylamine)methyl)phenyl)quinolin-6-yl)-2-methoxypyridine-3-yl)-2,4-difluorobenzenesulfonamide]
GI50 ([2]; on the 35 tumor cell lines, read-out: average half growth inhibitory concentration (GI50)): < 10 nM | GI50 ([2]; on the 60 kinds of tumor cells, read-out: Average GI50): 18.6 nM | GI50 [3]: < 10 nM | GI50 [4]: < 10 nM
